Reference: patent publication US7211572B2 (Japan Tobacco Inc., priority 2003, dated 2007)
Structures can show the parent of a compound that is named as a salt.

What follows are compounds tested against T1, HIV integrase (Human immunodeficiency virus type 1 group M subtype B, UniProt P12497, F1332H) (assay: Determination of enzyme (HIV integrase) inhibitory activity). Settings: recombinant HIV integrase (F185H), strand transfer ELISA, absorbance at 450 nm.
T1 construct: HIV integrase full length gene; made in house; host or cells: Escherichia coli BL21(DE3), plasmid pET21a-INH
Format: biochemical
How it was run: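 Full-length integrase with F185H, expressed in E. coli and purified, was reacted for 60 min at 37 °C with compound and biotinylated donor DNA bound to streptavidin plates. Target DNA was added for 10 min, then anti-digoxigenin-peroxidase detection at A450; IC50 from % inhibition versus enzyme-free blank.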

Structure (SMILES)	IC50 [nM]
CCCCNC(=O)c1cn2ccn(Cc3cccc(Cl)c3)c(=O)c2c(O)c1=O [Example 172, N-butyl-2-(3-chlorobenzyl)-9-hydroxy-1,8-dioxo-1,8-dihydro-2H-pyrido[1,2-a]pyrazine-7-carboxamide]	< 10
CC(C)CNC(=O)c1cn2ccn(Cc3cccc(Cl)c3)c(=O)c2c(O)c1=O [Example 173, N-isobutyl-2-(3-chlorobenzyl)-9-hydroxy-1,8-dioxo-1,8-dihydro-2H-pyrido[1,2-a]pyrazine-7-carboxamide]	10 to 100
COC(=O)CNC(=O)c1cn2ccn(Cc3cccc(Cl)c3)c(=O)c2c(O)c1=O [Example 174, methyl{[2-(3-chlorobenzyl)-9-hydroxy-1,8-dioxo-1,8-dihydro-2H-pyrido[1,2-a]pyrazine-7-carbonyl]amino}acetate]	10 to 100
CCNC(=O)c1cn2ccn(Cc3cccc(Cl)c3)c(=O)c2c(O)c1=O [Example 175, N-ethyl-2-(3-chlorobenzyl)-9-hydroxy-1,8-dioxo-1,8-dihydro-2H-pyrido[1,2-a]pyrazine-7-carboxamide]	< 10
COCCNC(=O)c1cn2ccn(Cc3cccc(Cl)c3)c(=O)c2c(O)c1=O [Example 176, N-(2-methoxyethyl)-2-(3-chlorobenzyl)-9-hydroxy-1,8-dioxo-1,8-dihydro-2H-pyrido[1,2-a]pyrazine-7-carboxamide]	10 to 100
O=C(NCCOC(=O)C(F)(F)F)c1cn2ccn(Cc3cccc(Cl)c3)c(=O)c2c(O)c1=O [Example 177, 2-{[2-(3-chlorobenzyl)-9-hydroxy-1,8-dioxo-1,8-dihydro-2H-pyrido[1,2-a]pyrazine-7-carbonyl]amino}ethyl trifluoroacetate]	10 to 100
O=C(NCCO)c1cn2ccn(Cc3cccc(Cl)c3)c(=O)c2c(O)c1=O [Example 178, N-(2-hydroxyethyl)-2-(3-chlorobenzyl)-9-hydroxy-1,8-dioxo-1,8-dihydro-2H-pyrido[1,2-a]pyrazine-7-carboxamide]	10 to 100
O=c1ccn2ccn(Cc3cccc(Cl)c3O)c(=O)c2c1O [Example 179, 2-(3-chloro-2-hydroxybenzyl)-9-hydroxy-2H-pyrido[1,2-a]pyrazine-1,8-dione hydrochloride]	10 to 100
O=C(NCc1ccccc1)c1cn2ccn(Cc3cccc(Cl)c3)c(=O)c2c(O)c1=O [Example 180, N-benzyl-2-(3-chlorobenzyl)-9-hydroxy-1,8-dioxo-1,8-dihydro-2H-pyrido[1,2-a]pyrazine-7-carboxamide]	< 10
O=C(NCC(F)(F)F)c1cn2ccn(Cc3cccc(Cl)c3)c(=O)c2c(O)c1=O [Example 181, N-(2,2,2-trifluoroethyl)-2-(3-chlorobenzyl)-9-hydroxy-1,8-dioxo-1,8-dihydro-2H-pyrido[1,2-a]pyrazine-7-carboxamide]	10 to 100
CCCCN(C)C(=O)c1cn2ccn(Cc3cccc(Cl)c3)c(=O)c2c(O)c1=O [Example 182, N-butyl-N-methyl-2-(3-chlorobenzyl)-9-hydroxy-1,8-dioxo-1,8-dihydro-2H-pyrido[1,2-a]pyrazine-7-carboxamide]	10 to 100
COCCN(C)C(=O)c1cn2ccn(Cc3cccc(Cl)c3)c(=O)c2c(O)c1=O [Example 183, N-(2-methoxyethyl)-N-methyl-2-(3-chlorobenzyl)-9-hydroxy-1,8-dioxo-1,8-dihydro-2H-pyrido[1,2-a]pyrazine-7-carboxamide]	10 to 100
O=C(c1cn2ccn(Cc3cccc(Cl)c3)c(=O)c2c(O)c1=O)N1CCCC1 [Example 184, 2-(3-chlorobenzyl)-9-hydroxy-7-(pyrrolidine-1-carbonyl)-2H-pyrido[1,2-a]pyrazine-1,8-dione]	10 to 100
O=C(c1cn2ccn(Cc3cccc(Cl)c3)c(=O)c2c(O)c1=O)N1CCOCC1 [Example 185, 2-(3-chlorobenzyl)-9-hydroxy-7-(morpholine-4-carbonyl)-2H-pyrido[1,2-a]pyrazine-1,8-dione]	10 to 100
COc1cc(Cn2ccn3ccc(=O)c(O)c3c2=O)ccc1Cl [Example 186, 2-(4-chloro-3-methoxybenzyl)-9-hydroxy-2H-pyrido[1,2-a]pyrazine-1,8-dione hydrochloride]	10 to 100
COC(=O)Cc1cn2ccn(Cc3cccc(Cl)c3)c(=O)c2c(O)c1=O [Example 187, methyl [2-(3-chlorobenzyl)-9-hydroxy-1,8-dioxo-1,8-dihydro-2H-pyrido[1,2-a]pyrazin-7-yl]acetate]	10 to 100
O=c1c(-c2nnn[nH]2)cn2ccn(Cc3cccc(Cl)c3)c(=O)c2c1O [Example 188, 2-(3-chlorobenzyl)-9-hydroxy-7-(1H-tetrazol-5-yl)-2H-pyrido[1,2-a]pyrazine-1,8-dione hydrochloride]	10 to 100
CNC(=O)Cc1cn2ccn(Cc3cccc(Cl)c3)c(=O)c2c(O)c1=O [Example 189, 2-[2-(3-chlorobenzyl)-9-hydroxy-1,8-dioxo-1,8-dihydro-2H-pyrido[1,2-a]pyrazin-7-yl]-N-methylacetamide]	10 to 100

Structure (SMILES)	IC50 [nM]
CN(C)C(=O)Cc1cn2ccn(Cc3cccc(Cl)c3)c(=O)c2c(O)c1=O [Example 190, 2-[2-(3-chlorobenzyl)-9-hydroxy-1,8-dioxo-1,8-dihydro-2H-pyrido[1,2-a]pyrazin-7-yl]-N,N-dimethylacetamide]	10 to 100
O=C(O)Cc1cn2ccn(Cc3cccc(Cl)c3)c(=O)c2c(O)c1=O [Example 191, [2-(3-chlorobenzyl)-9-hydroxy-1,8-dioxo-1,8-dihydro-2H-pyrido[1,2-a]pyrazin-7-yl]acetic acid]	10 to 100
CC(O)CNC(=O)c1cn2ccn(Cc3cccc(Cl)c3)c(=O)c2c(O)c1=O (stereo not drawn) [Example 192, N-(2-hydroxypropyl)-2-(3-chlorobenzyl)-9-hydroxy-1,8-dioxo-1,8-dihydro-2H-pyrido[1,2-a]pyrazine-7-carboxamide hydrochloride]	10 to 100
O=C(O)CNC(=O)c1cn2ccn(Cc3cccc(Cl)c3)c(=O)c2c(O)c1=O [Example 193, {[2-(3-chlorobenzyl)-9-hydroxy-1,8-dioxo-1,8-dihydro-2H-pyrido[1,2-a]pyrazine-7-carbonyl]amino}acetic acid]	10 to 100
CN(C)C(=O)CNC(=O)c1cn2ccn(Cc3cccc(Cl)c3)c(=O)c2c(O)c1=O [Example 194, N-dimethylcarbamoylmethyl-2-(3-chlorobenzyl)-9-hydroxy-1,8-dioxo-1,8-dihydro-2H-pyrido[1,2-a]pyrazine-7-carboxamide]	10 to 100
CNC(=O)CNC(=O)c1cn2ccn(Cc3cccc(Cl)c3)c(=O)c2c(O)c1=O [Example 195, N-methylcarbamoylmethyl-2-(3-chlorobenzyl)-9-hydroxy-1,8-dioxo-1,8-dihydro-2H-pyrido[1,2-a]pyrazine-7-carboxamide]	10 to 100
O=C(Nc1ccccc1)c1cn2ccn(Cc3cccc(Cl)c3)c(=O)c2c(O)c1=O [Example 196, N-phenyl-2-(3-chlorobenzyl)-9-hydroxy-1,8-dioxo-1,8-dihydro-2H-pyrido[1,2-a]pyrazine-7-carboxamide hydrochloride]	10 to 100
O=c1c(-c2ncco2)cn2ccn(Cc3cccc(Cl)c3)c(=O)c2c1O [Example 197, 2-(3-chlorobenzyl)-9-hydroxy-7-(oxazol-2-yl)-2H-pyrido[1,2-a]pyrazine-1,8-dione hydrochloride]	10 to 100
O=C(c1cn2ccn(Cc3cccc(Cl)c3)c(=O)c2c(O)c1=O)N1CCC(O)C1 (stereo not drawn) [Example 198, 2-(3-chlorobenzyl)-9-hydroxy-7-(3-hydroxypyrrolidine-1-carbonyl)-2H-pyrido[1,2-a]pyrazine-1,8-dione hydrochloride]	10 to 100
CC(=O)CNC(=O)c1cn2ccn(Cc3cccc(Cl)c3)c(=O)c2c(O)c1=O [Example 199, N-(2-oxopropyl)-2-(3-chlorobenzyl)-9-hydroxy-1,8-dioxo-1,8-dihydro-2H-pyrido[1,2-a]pyrazine-7-carboxamide]	10 to 100
O=C(Cn1ccn2ccc(=O)c(O)c2c1=O)Nc1ccccc1 [Example 200, 2-(9-hydroxy-1,8-dioxo-1,8-dihydro-pyrido[1,2-a]pyrazin-2-yl)-N-phenylacetamide hydrochloride]	100 to 1000
O=C1CCN(C(=O)c2cn3ccn(Cc4cccc(Cl)c4)c(=O)c3c(O)c2=O)C1 [Example 201, 2-(3-chlorobenzyl)-9-hydroxy-7-(3-oxopyrrolidine-1-carbonyl)-2H-pyrido[1,2-a]pyrazine-1,8-dione]	10 to 100
COc1ccc(Cl)cc1Cn1ccn2ccc(=O)c(O)c2c1=O [Example 202, 2-(5-chloro-2-methoxybenzyl)-9-hydroxy-2H-pyrido[1,2-a]pyrazine-1,8-dione hydrochloride]	10 to 100
CS(=O)(=O)Nc1cn2ccn(Cc3cccc(Cl)c3)c(=O)c2c(O)c1=O [Example 203, N-[2-(3-chlorobenzyl)-9-hydroxy-1,8-dioxo-1,8-dihydro-2H-pyrido[1,2-a]pyrazin-7-yl]methanesulfonamide]	< 10
CC(=O)c1cn2ccn(Cc3cccc(Cl)c3)c(=O)c2c(O)c1=O [Example 204, 7-acetyl-2-(3-chlorobenzyl)-9-hydroxy-2H-pyrido[1,2-a]pyrazine-1,8-dione hydrochloride]	< 10
CCC(=O)c1cn2ccn(Cc3cccc(Cl)c3)c(=O)c2c(O)c1=O [Example 205, 2-(3-chlorobenzyl)-9-hydroxy-7-propionyl-2H-pyrido[1,2-a]pyrazine-1,8-dione hydrochloride]	< 10
O=c1ccn2ccn(C/C=C/c3ccccc3)c(=O)c2c1O [Example 206, 9-hydroxy-2-(3-phenylallyl)-2H-pyrido[1,2-a]pyrazine-1,8-dione]	10 to 100
CNC(=O)c1cn2ccn(Cc3ccc(F)c(Cl)c3)c(=O)c2c(O)c1=O [Example 207, N-methyl-2-(3-chloro-4-fluorobenzyl)-9-hydroxy-1,8-dioxo-1,8-dihydro-2H-pyrido[1,2-a]pyrazine-7-carboxamide]	< 10
